Consider eight molecules from ChEMBL document CHEMBL3390839, “Triazolopyrimidinones as -secretase modulators: structureactivity relationship, modulator profile, and in vivo profiling” (Medchemcomm, 2013).

Values after ≈ are worked out from the molar mass of the structure shown.

One may read the pIC50 as the negative decadic logarithm of the IC50, by convention in mol/L. The term IC50 denotes the midpoint of a concentration-inhibition curve. Usually solubility stands for the dissolved amount per volume that the medium holds. Broadly, the half-life is the time in which the quantity being followed falls by half. Read a low half-life as rapid decline. One may read the clearance as the rate of elimination divided by the concentration. By Cmax is commonly meant the peak of the concentration-time curve. A word on the Tmax: it is the time from dosing to the highest level. The bioavailability is the share of a dose that reaches the circulation, judged against a reference dose that is usually intravenous. Lower therefore signals little systemic uptake.

In one series the target is Gamma-secretase. The series can be described thus: Inhibition of human gamma-secretase in HEK-APPswe cells assessed as amyloid beta42 production by electrochemiluminescence assay. Format: cell-based.
Series [1] deals with Voltage-gated inwardly rectifying potassium channel KCNH2 (Homo sapiens, UniProt Q12809). As to the kind of experiment: Inhibition of human ERG.
Series [2] is described as follows: Solubility of the compound. The class given is physicochemical.
The subject of a further series is Liver microsome. As to the kind of experiment: Intrinsic clearance in human liver microsomes measured pre ug of protein. Format: ADME. For orientation: Microsomes from liver hold many membrane-bound enzymes, among them those of drug oxidation.
Series [3] can be described thus: Permeability across apical to basolateral side in human Caco2 cells. Format: ADME, cell-based. The following applies: for Papp A→B: Caco-2, read-out: permeability.
Series [4] can be described thus: Permeability across basolateral to apical side in human Caco2 cells. The class given is ADME, cell-based. The following applies: for Papp B→A: Caco-2, read-out: permeability. (Caco-2 monolayers are a common model of the intestinal barrier.)
Series [5] can be described thus: Ratio of drug level in brain to plasma in C57BL/6 mouse. Format: ADME, organism-based. To be noted: brain and plasma, read-out: BPR.
Series [6] in a line: Inhibition of gamma-secretase in mouse primary cortical neurons cells assessed as amyloid beta42 production after 5 days by ELISA. Format: cell-based, Cerebral cortex neuron. To be noted: for IC50: Mus musculus, Cerebral cortex neuron, 120 h. (An ELISA detects its analyte on a solid surface through an enzyme-linked reagent.)
The subject of series [7] is Mus musculus. As to the kind of experiment: Dose normalized AUC in C57BL/6 mouse at 3 umol/kg, iv. Format: ADME, organism-based. The following applies: in vivo.
A short description of series [8]: Volume of distribution at steady state in C57BL/6 mouse at 3 umol/kg, iv. Format: ADME, organism-based. The following applies: in vivo, read-out: Vdss.
Series [9] can be described thus: Half life in C57BL/6 mouse at 3 umol/kg, iv. Format: ADME, organism-based. To be noted: in vivo.
The nature of series [10]: Clearance in C57BL/6 mouse at 3 umol/kg, iv. Format: ADME, organism-based. To be noted: in vivo.
In series [11] the test system is Mus musculus. The series can be described thus: Dose normalized AUC in C57BL/6 mouse at 10 umol/kg, po. Format: ADME, organism-based. The following applies: in vivo.
Series [12] is described as follows: Cmax in C57BL/6 mouse at 10 umol/kg, po. Format: ADME, organism-based. More on the design: dose 10 umol/kg, route oral. To be noted: in vivo.
The nature of series [13]: Tmax in C57BL/6 mouse at 10 umol/kg, po. To be noted: in vivo. The class given is ADME, organism-based.
The nature of series [14]: Half life in C57BL/6 mouse at 10 umol/kg, po. To be noted: in vivo. Format: ADME, organism-based.
Series [15] in a line: Oral bioavailability in C57BL/6 mouse at 10 umol/kg. The class given is ADME, organism-based. To be noted: in vivo.

Voltage-gated inwardly rectifying potassium channel KCNH2, sequence (Q12809 whole entry): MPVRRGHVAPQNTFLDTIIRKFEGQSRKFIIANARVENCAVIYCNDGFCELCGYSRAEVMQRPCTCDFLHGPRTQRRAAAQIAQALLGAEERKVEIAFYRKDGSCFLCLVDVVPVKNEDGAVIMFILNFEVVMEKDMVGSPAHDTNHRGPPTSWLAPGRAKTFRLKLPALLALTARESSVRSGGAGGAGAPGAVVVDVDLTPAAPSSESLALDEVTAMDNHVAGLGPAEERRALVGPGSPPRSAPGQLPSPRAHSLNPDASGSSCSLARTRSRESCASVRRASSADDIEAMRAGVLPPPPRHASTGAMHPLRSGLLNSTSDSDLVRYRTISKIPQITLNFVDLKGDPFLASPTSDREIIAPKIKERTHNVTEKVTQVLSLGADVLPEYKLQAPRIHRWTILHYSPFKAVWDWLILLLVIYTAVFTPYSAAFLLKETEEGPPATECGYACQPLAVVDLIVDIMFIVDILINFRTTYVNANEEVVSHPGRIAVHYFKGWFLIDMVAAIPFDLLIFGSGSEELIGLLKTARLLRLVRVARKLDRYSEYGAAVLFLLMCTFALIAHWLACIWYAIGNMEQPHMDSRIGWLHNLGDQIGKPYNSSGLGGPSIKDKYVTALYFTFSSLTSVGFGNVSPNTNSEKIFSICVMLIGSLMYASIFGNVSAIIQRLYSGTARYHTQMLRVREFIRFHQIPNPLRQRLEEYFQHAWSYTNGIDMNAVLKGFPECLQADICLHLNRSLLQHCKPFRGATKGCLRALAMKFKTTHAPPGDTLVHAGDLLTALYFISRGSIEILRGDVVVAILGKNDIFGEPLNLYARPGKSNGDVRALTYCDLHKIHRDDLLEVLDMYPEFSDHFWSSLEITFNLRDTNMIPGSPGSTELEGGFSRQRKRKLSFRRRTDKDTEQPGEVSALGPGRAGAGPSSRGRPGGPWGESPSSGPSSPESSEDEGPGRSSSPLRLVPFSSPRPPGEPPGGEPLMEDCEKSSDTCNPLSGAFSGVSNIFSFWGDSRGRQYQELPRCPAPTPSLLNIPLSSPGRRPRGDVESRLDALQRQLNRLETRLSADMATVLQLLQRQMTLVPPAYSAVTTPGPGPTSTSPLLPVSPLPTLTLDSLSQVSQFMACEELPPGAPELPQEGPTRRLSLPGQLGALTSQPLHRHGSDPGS

On to `COc1cc(Nc2nc3n(n2)CCC(=O)N3Cc2ccccc2C)ccc1-c1noc(C)n1`, for which the pIC50 on Gamma-secretase is reported as 4.8. This molecule also registered an IC50 in [1] of 33000 nM. The solubility in [2] (read-out: solubility) is 50 µM (≈ 22.3 µg/mL). For the same molecule, the CLH with Liver microsome stood at 39 µL/min. Further, in series [3], the Papp A→B was 38 ×10⁻⁶ cm/s. Also, the Papp B→A in series [4] was 12 ×10⁻⁶ cm/s. The Kp in series [5] amounted to 0.81.

`COc1cc(Nc2nc3n(n2)C(C2CC2)CCN3CC(C)(C)O)ccc1-n1cnc(C)c1` (stereo in doubt; 42A): in series [6] (cerebral cortex neuron), the pIC50 was 7.5. The solubility in series [2] was 63 µM (≈ 27.6 µg/mL). The molecule also came in with a CLH in the series on Liver microsome of 37 µL/min. Besides, the AUC/dose with Mus musculus [7] came to 0.67 kg·h/L; with Mus musculus [11] it was 0.61 kg·h/L. For the same molecule, the Vd in series [8] was determined as 1.4 L/kg. Moreover, the half-life was 54 min in series [9] and 60 min in series [14]. The molecule also had a clearance in series [10] of 25 mL/min/kg. Also, the highest level in [12] (Cmax) was 3.8 µM. Besides, the Tmax in [13] worked out at 30 min. This molecule returned a bioavailability in series [15] of 91%.

For the molecule `COc1cc(Nc2nc3n(n2)C(c2ccccc2)CCN3CC(C)(C)O)ccc1-n1cnc(C)c1` (stereo not drawn), the IC50 in [6] was 25.1 nM; in [1], 26000 nM. Further, the solubility in series [2] (read-out: solubility) worked out at 230 µM (≈ 109 µg/mL). The CLH in the series with Liver microsome was 39 µL/min. Further, the Papp A→B in series [3] worked out at 35 ×10⁻⁶ cm/s. In series [4], the Papp B→A worked out at 19 ×10⁻⁶ cm/s. The Kp in [5] stood at 0.01.

As for `COc1cc(Nc2nc3n(n2)CCC(=O)N3Cc2ccccc2)ccc1-n1cnc(C)c1`, at Gamma-secretase, the pIC50 is 7.9. Also, the values for the IC50 in series [6] and in series [1] were 79.4 nM and 5700 nM, respectively. Moreover, the solubility in series [2] (read-out: solubility) was under 1 µM. Also, in the series with Liver microsome, the CLH worked out at 30 µL/min. In series [3], the Papp A→B stood at 36 ×10⁻⁶ cm/s. The Papp B→A in [4] worked out at 12 ×10⁻⁶ cm/s. For the same molecule, the Kp in [5] was found to be 0.24.

As to `COc1cc(Nc2nc3n(n2)CCC(=O)N3Cc2ccccc2C)ccc1-c1ccnnc1`, the pIC50 at Gamma-secretase was 7.5. Further, the IC50 in [6] is 79.4 nM; in [1] it was 33000 nM. For the same molecule, the solubility in series [2] (read-out: solubility) is under 1 µM. The molecule also gave a CLH with Liver microsome of 56 µL/min. In addition, in series [3], the Papp A→B turned out to be 18 ×10⁻⁶ cm/s. In [4], the Papp B→A was 22 ×10⁻⁶ cm/s. The Kp in series [5] is 0.11.

Take `COc1cc(Nc2nc3n(n2)CCC(=O)N3Cc2ccccc2C(F)(F)F)ccc1-n1cnc(C)n1`: the pIC50 at Gamma-secretase was found to be 7.3. This molecule registered an IC50 in series [1] of 33000 nM. The CLH with Liver microsome stood at 19 µL/min. The permeability amounted to 45 ×10⁻⁶ cm/s in [3] (Caco-2) and 18 ×10⁻⁶ cm/s in [4] (Caco-2). Moreover, the Kp in series [5] is 0.68.

Take `COc1cc(Nc2nc3n(n2)CCC(=O)N3Cc2ccccc2C)ccc1-c1cnnc(C)c1`: the pIC50 at Gamma-secretase amounted to 8. In addition, the IC50 was 39.8 nM in series [6] and 33000 nM in series [1]. Moreover, the solubility in series [2] (read-out: solubility) is under 1 µM. Moreover, the CLH with Liver microsome stood at 109 µL/min. The Papp A→B in [3] came out at 14 ×10⁻⁶ cm/s. Besides, in series [4], the Papp B→A was found to be 6 ×10⁻⁶ cm/s. In [5], the Kp was determined as 0.07.

`COc1cc(Nc2nc3n(n2)C(C)CC(=O)N3CC2CC(F)(F)C2)ccc1-n1cnc(C)c1` (stereo not drawn): the IC50 in series [6] is 50.1 nM; in series [1], 4400 nM. In addition, in series [2] (read-out: solubility), the solubility was determined as 4 µM (≈ 1.83 µg/mL). This molecule returned a CLH in the series with Liver microsome of 101 µL/min. For the same molecule, in [3], the Papp A→B was 50 ×10⁻⁶ cm/s. Further, the Papp B→A in [4] came out at 19 ×10⁻⁶ cm/s. In addition, the Kp in series [5] was 0.08.
